We go through six compounds from ChEMBL document CHEMBL4033665, “Synthesis and applications of benzohydroxamic acid-based histone deacetylase inhibitors” (Eur J Med Chem, 2017).

A value given as a limit tells only on which side of the number the result lay.

Experiment [1] concerns the target T1, Histone deacetylase 3 (Homo sapiens, UniProt O15379). The experiment in a line: Inhibition of HDAC3 (unknown origin).
The next experiment has as its target Histone deacetylase 5 (Homo sapiens, UniProt Q9UQL6). As to the kind of experiment: Inhibition of HDAC5 (unknown origin).
Experiment [2] has as its target T2, Protein deacetylase HDAC6 (Homo sapiens, UniProt Q9UBN7).
T2 sequence (Q9UBN7 whole entry): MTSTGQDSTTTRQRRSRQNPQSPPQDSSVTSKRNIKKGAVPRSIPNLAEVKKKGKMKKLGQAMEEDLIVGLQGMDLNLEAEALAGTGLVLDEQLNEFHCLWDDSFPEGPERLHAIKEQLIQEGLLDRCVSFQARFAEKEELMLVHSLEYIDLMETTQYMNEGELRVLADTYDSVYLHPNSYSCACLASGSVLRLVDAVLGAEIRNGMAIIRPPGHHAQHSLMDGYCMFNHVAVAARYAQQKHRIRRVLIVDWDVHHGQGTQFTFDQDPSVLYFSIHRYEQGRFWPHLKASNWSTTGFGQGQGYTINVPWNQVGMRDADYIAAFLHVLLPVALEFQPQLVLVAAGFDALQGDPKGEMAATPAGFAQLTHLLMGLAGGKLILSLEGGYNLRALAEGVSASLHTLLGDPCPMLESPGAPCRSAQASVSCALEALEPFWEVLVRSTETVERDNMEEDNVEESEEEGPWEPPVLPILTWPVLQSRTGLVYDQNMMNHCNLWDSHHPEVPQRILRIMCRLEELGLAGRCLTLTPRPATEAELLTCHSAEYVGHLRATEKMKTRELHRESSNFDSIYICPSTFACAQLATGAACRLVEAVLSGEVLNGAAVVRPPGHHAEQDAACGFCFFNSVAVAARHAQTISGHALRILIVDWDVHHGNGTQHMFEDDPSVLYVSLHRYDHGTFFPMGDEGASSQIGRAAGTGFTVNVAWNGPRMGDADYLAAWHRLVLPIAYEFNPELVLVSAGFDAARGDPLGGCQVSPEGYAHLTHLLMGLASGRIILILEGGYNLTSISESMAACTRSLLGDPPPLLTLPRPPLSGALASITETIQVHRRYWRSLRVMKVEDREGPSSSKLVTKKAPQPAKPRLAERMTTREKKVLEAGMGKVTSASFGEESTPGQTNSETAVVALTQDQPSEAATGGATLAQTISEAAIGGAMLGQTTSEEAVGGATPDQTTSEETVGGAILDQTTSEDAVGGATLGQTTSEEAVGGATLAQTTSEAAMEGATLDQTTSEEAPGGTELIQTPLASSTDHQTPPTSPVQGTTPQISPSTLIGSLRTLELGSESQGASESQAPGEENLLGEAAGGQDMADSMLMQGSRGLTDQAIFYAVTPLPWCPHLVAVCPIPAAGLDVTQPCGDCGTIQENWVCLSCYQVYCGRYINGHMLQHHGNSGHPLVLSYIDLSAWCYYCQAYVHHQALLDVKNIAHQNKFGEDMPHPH
The experiment in a line: Inhibition of HDAC6 (unknown origin).

The target in experiment [3] is T3, Polyamine deacetylase HDAC10 (Homo sapiens, UniProt Q969S8).
T3 sequence (Q969S8 whole entry): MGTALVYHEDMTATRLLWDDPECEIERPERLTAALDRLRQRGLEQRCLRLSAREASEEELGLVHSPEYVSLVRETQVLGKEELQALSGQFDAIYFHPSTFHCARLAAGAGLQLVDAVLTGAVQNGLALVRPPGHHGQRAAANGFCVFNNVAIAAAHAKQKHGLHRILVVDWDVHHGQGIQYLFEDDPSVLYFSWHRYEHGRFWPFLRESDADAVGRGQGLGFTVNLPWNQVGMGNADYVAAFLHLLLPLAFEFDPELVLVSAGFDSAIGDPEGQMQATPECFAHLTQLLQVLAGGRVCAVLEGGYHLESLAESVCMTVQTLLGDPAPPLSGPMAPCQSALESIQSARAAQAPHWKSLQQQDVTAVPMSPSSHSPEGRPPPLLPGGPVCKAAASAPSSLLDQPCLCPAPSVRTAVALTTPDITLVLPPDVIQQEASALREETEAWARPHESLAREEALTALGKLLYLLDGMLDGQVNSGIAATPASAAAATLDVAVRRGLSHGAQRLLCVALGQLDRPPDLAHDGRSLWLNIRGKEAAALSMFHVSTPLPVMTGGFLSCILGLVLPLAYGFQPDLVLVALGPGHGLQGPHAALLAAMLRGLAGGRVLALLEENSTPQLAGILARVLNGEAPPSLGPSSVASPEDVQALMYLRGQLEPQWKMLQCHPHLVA
The experiment in a line: Inhibition of HDAC10 (unknown origin).

In another experiment the target is Histone deacetylase 4 (Homo sapiens, UniProt P56524). As to the kind of experiment: Inhibition of HDAC4 (unknown origin).
For experiment [4], the target named is T4, Histone deacetylase 2 (Homo sapiens, UniProt Q92769). As to the kind of experiment: Inhibition of HDAC2 (unknown origin).
Another experiment concerns the target T5, Histone deacetylase 11 (Homo sapiens, UniProt Q96DB2).
T5 sequence (Q96DB2 whole entry): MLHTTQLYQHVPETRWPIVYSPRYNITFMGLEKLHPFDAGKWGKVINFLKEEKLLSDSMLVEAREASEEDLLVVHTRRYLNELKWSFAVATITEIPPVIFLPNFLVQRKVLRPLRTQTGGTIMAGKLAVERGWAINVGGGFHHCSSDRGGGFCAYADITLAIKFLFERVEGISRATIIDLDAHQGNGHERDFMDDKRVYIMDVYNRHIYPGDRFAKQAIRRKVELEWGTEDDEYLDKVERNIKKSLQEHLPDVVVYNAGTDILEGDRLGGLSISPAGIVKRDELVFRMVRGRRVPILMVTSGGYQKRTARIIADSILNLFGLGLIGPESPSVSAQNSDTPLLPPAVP
The experiment in a line: Inhibition of HDAC11 (unknown origin).

Another experiment addresses T6, Histone deacetylase 8 (Homo sapiens, UniProt Q9BY41).
T6 sequence (Q9BY41 whole entry): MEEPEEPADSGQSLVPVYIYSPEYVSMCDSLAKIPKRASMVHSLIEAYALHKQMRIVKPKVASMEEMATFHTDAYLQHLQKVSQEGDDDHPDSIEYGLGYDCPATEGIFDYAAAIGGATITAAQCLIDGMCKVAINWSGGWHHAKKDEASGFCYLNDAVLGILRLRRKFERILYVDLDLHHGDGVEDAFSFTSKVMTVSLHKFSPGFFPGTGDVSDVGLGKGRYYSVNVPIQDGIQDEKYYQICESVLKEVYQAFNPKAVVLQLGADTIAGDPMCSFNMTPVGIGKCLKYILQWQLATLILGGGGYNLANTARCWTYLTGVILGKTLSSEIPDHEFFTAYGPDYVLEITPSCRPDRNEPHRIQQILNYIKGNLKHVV
The experiment in a line: Inhibition of HDAC8 (unknown origin).

The target in experiment [5] is T7, Histone deacetylase 1 (Homo sapiens, UniProt Q13547). As to the kind of experiment: Inhibition of HDAC1 (unknown origin).
Another experiment addresses Histone deacetylase 9 (Homo sapiens, UniProt Q9UKV0). The experiment in a line: Inhibition of HDAC9 (unknown origin).
The target in experiment [6] is T7, Histone deacetylase 1. As to the kind of experiment: Inhibition of C-terminal GST-tagged full length human HDAC1 expressed in baculovirus expression system in Sf9 cells using AMC-labeled RHKKAc as substrate after 2 hrs by fluorescence assay.
In experiment [7] the target is T2, Protein deacetylase HDAC6. The experiment in a line: Inhibition of N-terminal GST-tagged full length human HDAC6 expressed in baculovirus expression system in Sf9 cells using AMC-labeled RHKKAc as substrate after 2 hrs by fluorescence assay.
Experiment [8] addresses T1, Histone deacetylase 3. The experiment in a line: Inhibition of C-terminal His-tagged full length human HDAC3 expressed in baculovirus expression system using AMC-labeled RHKKAc as substrate after 2 hrs by fluorescence assay.
Experiment [9] concerns the target T4, Histone deacetylase 2. As to the kind of experiment: Inhibition of human HDAC2 after 15 mins by trypsin-coupled fluorescence assay.
The nature of experiment [10]: Inhibition of HDAC activity in human DU-145 cell nuclear extract.

T1 sequence (O15379 whole entry): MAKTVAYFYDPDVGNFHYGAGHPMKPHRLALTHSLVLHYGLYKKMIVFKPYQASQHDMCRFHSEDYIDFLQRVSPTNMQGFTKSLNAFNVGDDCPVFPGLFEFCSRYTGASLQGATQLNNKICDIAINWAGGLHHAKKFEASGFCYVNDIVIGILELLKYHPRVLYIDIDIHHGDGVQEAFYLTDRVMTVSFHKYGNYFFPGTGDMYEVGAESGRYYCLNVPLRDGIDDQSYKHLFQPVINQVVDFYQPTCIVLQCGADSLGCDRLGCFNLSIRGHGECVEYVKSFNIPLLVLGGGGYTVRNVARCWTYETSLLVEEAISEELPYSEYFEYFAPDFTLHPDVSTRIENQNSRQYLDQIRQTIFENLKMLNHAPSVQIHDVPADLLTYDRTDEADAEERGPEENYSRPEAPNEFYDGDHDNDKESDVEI
T7 sequence (Q13547 whole entry): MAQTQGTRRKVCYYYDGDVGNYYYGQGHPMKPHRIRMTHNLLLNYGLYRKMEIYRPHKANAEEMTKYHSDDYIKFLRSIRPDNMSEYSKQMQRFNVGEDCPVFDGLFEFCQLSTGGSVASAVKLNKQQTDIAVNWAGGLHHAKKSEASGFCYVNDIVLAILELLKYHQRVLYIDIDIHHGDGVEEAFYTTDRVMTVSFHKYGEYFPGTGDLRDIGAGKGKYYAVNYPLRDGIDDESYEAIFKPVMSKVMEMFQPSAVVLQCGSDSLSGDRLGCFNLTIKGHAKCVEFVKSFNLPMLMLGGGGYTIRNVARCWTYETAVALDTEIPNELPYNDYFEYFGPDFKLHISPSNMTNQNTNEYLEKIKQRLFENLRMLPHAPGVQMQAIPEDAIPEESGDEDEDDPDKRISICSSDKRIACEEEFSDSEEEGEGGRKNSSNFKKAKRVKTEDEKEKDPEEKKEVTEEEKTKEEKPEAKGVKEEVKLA
Histone deacetylase 5, sequence (Q9UQL6 whole entry): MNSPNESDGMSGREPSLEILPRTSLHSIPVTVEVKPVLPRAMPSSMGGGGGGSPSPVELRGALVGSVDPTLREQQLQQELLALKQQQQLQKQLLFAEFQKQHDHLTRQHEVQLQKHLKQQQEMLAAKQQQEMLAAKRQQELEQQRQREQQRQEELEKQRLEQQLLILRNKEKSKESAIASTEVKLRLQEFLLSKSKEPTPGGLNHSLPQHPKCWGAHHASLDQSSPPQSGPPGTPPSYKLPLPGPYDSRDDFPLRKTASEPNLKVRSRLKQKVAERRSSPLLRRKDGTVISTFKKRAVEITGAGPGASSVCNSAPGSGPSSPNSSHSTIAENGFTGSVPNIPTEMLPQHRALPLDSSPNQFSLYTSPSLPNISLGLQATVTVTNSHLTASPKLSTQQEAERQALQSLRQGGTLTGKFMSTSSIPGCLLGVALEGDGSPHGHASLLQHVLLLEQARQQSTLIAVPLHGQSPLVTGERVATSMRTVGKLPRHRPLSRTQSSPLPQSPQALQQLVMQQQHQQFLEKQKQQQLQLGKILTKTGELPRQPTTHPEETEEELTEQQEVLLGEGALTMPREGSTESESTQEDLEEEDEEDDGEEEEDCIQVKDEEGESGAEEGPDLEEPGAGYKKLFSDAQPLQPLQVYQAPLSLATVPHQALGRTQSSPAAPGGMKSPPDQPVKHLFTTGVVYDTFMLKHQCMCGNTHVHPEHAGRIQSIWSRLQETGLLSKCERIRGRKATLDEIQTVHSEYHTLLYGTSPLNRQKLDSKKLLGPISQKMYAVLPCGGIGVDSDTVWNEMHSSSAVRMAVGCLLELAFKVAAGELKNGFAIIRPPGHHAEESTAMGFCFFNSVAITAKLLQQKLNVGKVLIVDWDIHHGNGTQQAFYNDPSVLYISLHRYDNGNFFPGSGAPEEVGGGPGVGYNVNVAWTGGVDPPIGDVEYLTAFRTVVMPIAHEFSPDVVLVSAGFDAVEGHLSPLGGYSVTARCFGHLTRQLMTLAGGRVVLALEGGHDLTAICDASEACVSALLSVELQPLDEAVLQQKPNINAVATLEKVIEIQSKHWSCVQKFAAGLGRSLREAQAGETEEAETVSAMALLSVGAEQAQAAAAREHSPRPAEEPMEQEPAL
Histone deacetylase 4, sequence (P56524 whole entry): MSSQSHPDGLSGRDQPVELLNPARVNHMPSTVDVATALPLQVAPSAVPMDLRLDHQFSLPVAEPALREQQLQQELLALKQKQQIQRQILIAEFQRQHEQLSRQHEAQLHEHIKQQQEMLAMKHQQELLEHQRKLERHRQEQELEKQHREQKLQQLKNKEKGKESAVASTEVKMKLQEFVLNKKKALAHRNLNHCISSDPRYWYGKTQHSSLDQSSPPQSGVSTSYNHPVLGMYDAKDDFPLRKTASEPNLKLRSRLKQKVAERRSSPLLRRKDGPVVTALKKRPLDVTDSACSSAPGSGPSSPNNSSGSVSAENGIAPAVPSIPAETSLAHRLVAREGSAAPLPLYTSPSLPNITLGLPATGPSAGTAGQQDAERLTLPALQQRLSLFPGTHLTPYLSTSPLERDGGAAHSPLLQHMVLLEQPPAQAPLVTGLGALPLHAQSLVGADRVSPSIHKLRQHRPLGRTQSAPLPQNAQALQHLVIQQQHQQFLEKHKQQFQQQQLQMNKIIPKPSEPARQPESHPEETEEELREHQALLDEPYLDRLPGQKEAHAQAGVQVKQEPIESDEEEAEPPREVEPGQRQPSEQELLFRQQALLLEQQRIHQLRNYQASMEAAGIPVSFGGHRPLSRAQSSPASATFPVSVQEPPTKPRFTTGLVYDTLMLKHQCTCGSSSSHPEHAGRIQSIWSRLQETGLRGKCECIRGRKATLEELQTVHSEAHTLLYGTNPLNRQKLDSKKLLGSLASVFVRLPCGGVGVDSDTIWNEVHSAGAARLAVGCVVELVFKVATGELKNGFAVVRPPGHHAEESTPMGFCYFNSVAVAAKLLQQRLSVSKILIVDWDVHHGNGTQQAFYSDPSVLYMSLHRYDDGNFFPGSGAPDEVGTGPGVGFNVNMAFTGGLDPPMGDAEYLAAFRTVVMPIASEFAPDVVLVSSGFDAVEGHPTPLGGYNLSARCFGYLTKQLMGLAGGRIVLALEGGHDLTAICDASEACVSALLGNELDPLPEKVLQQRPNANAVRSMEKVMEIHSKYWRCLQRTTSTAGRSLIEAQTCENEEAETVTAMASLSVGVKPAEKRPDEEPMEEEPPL
T4 sequence (Q92769 whole entry): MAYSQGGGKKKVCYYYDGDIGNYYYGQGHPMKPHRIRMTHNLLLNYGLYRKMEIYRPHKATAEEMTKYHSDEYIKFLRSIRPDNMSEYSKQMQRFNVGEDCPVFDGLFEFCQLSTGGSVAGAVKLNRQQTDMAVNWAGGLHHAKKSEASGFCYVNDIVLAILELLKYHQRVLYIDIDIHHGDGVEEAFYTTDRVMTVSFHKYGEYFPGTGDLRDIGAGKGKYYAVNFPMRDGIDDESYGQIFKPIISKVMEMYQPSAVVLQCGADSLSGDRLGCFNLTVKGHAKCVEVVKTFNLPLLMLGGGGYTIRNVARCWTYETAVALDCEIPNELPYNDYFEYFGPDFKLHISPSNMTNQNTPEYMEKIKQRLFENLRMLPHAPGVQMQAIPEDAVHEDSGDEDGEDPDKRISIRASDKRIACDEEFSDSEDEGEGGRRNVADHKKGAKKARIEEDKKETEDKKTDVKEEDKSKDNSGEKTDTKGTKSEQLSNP
Histone deacetylase 9, sequence (Q9UKV0 whole entry): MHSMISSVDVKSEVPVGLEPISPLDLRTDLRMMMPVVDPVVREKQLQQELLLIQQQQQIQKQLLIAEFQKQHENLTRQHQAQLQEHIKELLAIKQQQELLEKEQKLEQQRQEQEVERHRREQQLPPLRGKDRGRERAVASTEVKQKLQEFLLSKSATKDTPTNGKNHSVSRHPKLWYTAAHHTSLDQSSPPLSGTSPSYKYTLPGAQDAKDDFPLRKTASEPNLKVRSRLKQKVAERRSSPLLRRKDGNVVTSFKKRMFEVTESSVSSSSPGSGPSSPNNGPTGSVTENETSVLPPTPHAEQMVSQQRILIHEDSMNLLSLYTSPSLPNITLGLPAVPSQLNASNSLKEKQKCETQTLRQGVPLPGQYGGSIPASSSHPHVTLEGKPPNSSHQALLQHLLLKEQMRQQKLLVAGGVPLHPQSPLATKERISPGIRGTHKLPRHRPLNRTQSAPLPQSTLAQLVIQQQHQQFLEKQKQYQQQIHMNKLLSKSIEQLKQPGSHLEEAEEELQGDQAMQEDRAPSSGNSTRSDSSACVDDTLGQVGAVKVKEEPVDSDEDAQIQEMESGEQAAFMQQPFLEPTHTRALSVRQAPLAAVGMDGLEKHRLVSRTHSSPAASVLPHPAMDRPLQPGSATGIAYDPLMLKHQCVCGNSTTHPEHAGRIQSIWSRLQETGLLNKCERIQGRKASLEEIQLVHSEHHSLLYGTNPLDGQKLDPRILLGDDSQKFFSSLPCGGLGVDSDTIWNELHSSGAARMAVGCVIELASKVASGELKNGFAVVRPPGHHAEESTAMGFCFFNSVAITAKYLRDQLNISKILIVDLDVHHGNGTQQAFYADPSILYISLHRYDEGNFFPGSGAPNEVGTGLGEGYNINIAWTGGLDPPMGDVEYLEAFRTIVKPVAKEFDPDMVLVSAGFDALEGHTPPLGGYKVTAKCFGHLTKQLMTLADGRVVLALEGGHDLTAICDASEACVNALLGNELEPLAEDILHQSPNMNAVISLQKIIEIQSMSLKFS

As to `Cc1nc2ccccc2n1Cc1ccc(C(=O)NO)cc1F`, the IC50 on Histone deacetylase 3 [1] came out at 12500 nM; on Histone deacetylase 5, 200 nM; in experiment [2], 0.8 nM; in experiment [3], 20400 nM; against Histone deacetylase 4 it was 500 nM; at Histone deacetylase 2 [4], 20300 nM. The IC50 is 12900 nM against Histone deacetylase 11 and 200 nM on Histone deacetylase 8.
Turning to `O=C(NO)c1ccc(Cn2c3c(c4ccccc42)S(=O)(=O)CC3)cc1`, the IC50 was found to be 400 nM at Histone deacetylase 5; 8 nM in experiment [2]; 12000 nM against Histone deacetylase 1 [5]; 13000 nM in [3]; 600 nM on Histone deacetylase 4; 200 nM against Histone deacetylase 9. In addition, the IC50 was greater than 30000 nM against Histone deacetylase 2 [4], 17000 nM on Histone deacetylase 11 and 1900 nM against Histone deacetylase 8.
As to `O=C(NO)c1ccc(CN2c3ccccc3S(=O)(=O)C[C@H]3CCCC[C@H]32)cc1`, the IC50 against Histone deacetylase 3 [1] was 24000 nM; against Histone deacetylase 5, 9100 nM; in [2] it was 8 nM; against Histone deacetylase 1 [5], 8100 nM; in [3], 10000 nM; against Histone deacetylase 4 it was greater than 30000 nM. The IC50 was 13000 nM against Histone deacetylase 9, 24000 nM against Histone deacetylase 2 [4], 2400 nM at Histone deacetylase 11 and 1100 nM at Histone deacetylase 8.
For the compound `COc1ccc(-c2cc(-c3ccoc3)c(C(=O)NCc3ccc(C(=O)NO)cc3)[nH]2)cc1`, the half-inhibitory concentration (IC50) on Histone deacetylase 1 [6] worked out at 70 nM; in experiment [7] it was 2 nM; at Histone deacetylase 3 [8], 80 nM.
On Histone deacetylase 2 [9], `O=C(NO)c1ccc(CC(=O)N(CCO)c2ccccc2)cc1` yielded a 50% inhibitory concentration (IC50) of 4400 nM.
The compound `O=C(CCCc1ccccc1)Nc1ccc(C(=O)NO)cc1` had a half-maximal inhibitory concentration (IC50) in experiment [10] of 44 nM.
